US5969017A, “Methods of treating or preventing cardiac arrhythmia” (Merck & Co., Inc., priority 1997, dated 1999)

Assays:
Type in all cases: cell-based
IKs = molecular target: T1, IKs (Cavia porcellus, UniProt O70344); assay: Voltage clamp block of IKs in guinea pig ventricular myocytes; settings: guinea pig ventricle
T1 construct: Guinea pig ventricular myocytes were isolated; endogenous in cells; host or cells: isolated guinea pig ventricular myocytes
Experimental: (§1) D. Measurement of IKs IKr and IK1 in Guinea Pig Ventricular Myocytes.
(§2) Guinea pig ventricular myocytes were isolated using a modification of the procedure described by Mitra et al., Am. J. Physiol. 249:H1056-60 (1985). Excised hearts were perfused through the aorta (retrograde fashion) at a rate of 10 ml/min with oxygenated, warmed (37° C.) solutions described below. The heart was initially perfused for 7 minutes with a Tyrode's solution containing, in mM: 132 NaCl, 4 KCl, 1.2 MgCl2, 10 HEPES, 5 glucose, pH=7.2. The heart was then perfused with the same nominally Ca^2+ -free solution containing 150 units/ml Type II collagenase (Worthington) and 0.5 units/ml Type XIV protease (Sigma) for 8 minutes. This perfusate was followed by a Tyrode's solution contianing 0.2 mM CaCl2 (without enzymes) for 5 minutes. […]
(§3) The suction microelectrode technique described by Giles, W. R. and Shibata, E. F., "Voltage clamp of bull-frog cardiac pacemaker cells: a quantitative analysis of potassium currents", J. Physiol. […]
(§4) To record K^+ currents, the cells were bathed in a Ca^2+ -free Tyrode's solution containing 0.4 mM nisoldipine. […] Data was analyzed as % block from control membrane currents.
(§5) Nisoldipine was prepared as a 4 mM stock solution in polyethylne glycol 200. […] At the final concentrations used, neither polyethylene glycol 200 nor dimethyl sulfoxide had any effect on any of the measured membrane currents. […]

IKr = molecular target: T2, IKr (Cavia porcellus, UniProt O08703); assay: Voltage clamp block of IKr in guinea pig ventricular myocytes; settings: guinea pig ventricle
T2 construct: Guinea pig ventricular myocytes were isolated; endogenous in cells; host or cells: isolated guinea pig ventricular myocytes
T2 sequence (O08703 1-1294): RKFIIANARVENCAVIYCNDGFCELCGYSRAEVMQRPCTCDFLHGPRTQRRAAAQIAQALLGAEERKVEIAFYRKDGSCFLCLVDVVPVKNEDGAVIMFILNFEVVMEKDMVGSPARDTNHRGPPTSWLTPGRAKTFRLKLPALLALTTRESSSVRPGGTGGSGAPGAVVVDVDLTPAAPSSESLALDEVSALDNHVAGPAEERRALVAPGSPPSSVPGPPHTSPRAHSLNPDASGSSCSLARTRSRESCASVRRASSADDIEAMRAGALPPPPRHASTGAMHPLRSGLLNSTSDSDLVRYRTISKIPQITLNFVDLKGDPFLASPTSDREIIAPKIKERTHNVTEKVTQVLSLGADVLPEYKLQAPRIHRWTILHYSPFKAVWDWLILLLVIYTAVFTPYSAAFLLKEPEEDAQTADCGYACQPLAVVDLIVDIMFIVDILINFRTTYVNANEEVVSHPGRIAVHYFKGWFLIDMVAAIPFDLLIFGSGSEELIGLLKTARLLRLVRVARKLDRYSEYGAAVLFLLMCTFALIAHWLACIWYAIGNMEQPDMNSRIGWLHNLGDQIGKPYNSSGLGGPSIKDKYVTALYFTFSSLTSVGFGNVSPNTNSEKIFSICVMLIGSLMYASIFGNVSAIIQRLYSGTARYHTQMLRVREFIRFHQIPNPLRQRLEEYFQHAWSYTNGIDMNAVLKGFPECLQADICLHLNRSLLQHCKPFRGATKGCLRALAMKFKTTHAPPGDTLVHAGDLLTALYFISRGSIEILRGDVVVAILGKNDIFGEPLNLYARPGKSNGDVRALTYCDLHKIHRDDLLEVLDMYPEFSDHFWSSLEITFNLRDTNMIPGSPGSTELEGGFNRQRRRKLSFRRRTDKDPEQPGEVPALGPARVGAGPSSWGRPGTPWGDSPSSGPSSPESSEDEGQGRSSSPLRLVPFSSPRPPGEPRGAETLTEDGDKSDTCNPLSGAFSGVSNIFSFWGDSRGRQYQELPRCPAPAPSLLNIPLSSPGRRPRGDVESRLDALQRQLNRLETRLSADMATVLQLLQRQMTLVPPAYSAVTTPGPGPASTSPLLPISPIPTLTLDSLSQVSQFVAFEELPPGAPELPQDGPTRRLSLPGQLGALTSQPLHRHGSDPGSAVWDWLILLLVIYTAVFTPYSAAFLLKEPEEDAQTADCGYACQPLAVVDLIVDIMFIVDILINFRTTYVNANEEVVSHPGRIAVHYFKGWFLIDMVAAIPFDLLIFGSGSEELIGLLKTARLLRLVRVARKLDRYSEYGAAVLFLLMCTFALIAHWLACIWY
Experimental: as §1, §2, §3, §4, §5

IK1 = assay: Voltage clamp block of IK1 in guinea pig ventricular myocytes; settings: 3 μM; guinea pig ventricle
Experimental: as §1, §2, §3, §4, §5

T1 sequence (O70344 whole entry): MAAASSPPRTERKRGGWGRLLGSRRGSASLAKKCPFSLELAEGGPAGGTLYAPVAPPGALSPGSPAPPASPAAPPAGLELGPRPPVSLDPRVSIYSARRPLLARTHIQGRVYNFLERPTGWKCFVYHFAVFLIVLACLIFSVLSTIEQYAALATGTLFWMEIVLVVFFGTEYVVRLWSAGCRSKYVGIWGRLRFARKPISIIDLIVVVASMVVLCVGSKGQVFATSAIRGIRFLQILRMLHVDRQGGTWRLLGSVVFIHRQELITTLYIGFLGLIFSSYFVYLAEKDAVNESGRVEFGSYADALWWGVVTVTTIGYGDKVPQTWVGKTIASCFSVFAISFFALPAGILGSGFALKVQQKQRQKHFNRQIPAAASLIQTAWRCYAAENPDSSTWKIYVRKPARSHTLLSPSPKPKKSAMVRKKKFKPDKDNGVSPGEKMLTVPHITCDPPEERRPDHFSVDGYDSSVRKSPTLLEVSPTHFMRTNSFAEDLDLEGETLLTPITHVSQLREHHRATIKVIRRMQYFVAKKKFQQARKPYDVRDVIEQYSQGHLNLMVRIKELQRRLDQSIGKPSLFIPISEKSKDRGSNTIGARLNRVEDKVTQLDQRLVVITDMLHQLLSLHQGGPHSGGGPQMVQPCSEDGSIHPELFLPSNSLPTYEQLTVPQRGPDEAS
T1 sequence (Q60409 whole entry partner): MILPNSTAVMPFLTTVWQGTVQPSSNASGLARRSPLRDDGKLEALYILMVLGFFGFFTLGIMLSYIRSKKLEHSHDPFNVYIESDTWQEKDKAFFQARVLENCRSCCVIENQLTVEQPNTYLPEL

Q: What does the source list for `COc1ccc(-n2nc(Sc3ccc(Cl)cc3)c(C)c(C#N)c2=O)cc1` [C, 6-(4-Chlorophenylthio)-2-(4-methoxyphenyl)-5-methyl-3-oxo-2,3-dihydropyridazine-4-carbonitrile]?
A: inhibition at 3 µM (IKs): 0%; inhibition at 3 µM (IKr): 8.4%; % Block IK1 (IK1): 0%
